For three compounds, inhibition and GI50 results are on record in patent publication US20190119284A1, “ErbB Inhibitors and Uses Thereof” (The Regents of the University of California, priority 2016, published 2019).

Like-named read-outs stand apart in the source and are kept apart here.

The target of one experiment is ROCK1 (Homo sapiens, UniProt Q13464). Description: Nanosyn in vitro kinase profiling: ROCK1. The format is biochemical. To be noted: for inhibition at 1 µM: compound at 1 μM. On the procedure:
(§1) This was confirmed by in vitro profiling against a panel of kinases, with compound 2 only showing potent inhibition of EGFR and Ab1 (Table 2).
(§2) In vitro Kinome Screen. In vitro profiling of compound 2 at 100 nM was conducted by Nanosyn.

Another experiment addresses MAP4K4 (Homo sapiens, UniProt O95819). Description: Nanosyn in vitro kinase profiling: MAP4K4. The class given is biochemical. To be noted: for inhibition at 1 µM: compound at 1 μM. As for the experimental part:
as §1, §2

A further experiment addresses T1, FLT-3 (Homo sapiens, UniProt P36888).
T1 sequence (P36888 27-993): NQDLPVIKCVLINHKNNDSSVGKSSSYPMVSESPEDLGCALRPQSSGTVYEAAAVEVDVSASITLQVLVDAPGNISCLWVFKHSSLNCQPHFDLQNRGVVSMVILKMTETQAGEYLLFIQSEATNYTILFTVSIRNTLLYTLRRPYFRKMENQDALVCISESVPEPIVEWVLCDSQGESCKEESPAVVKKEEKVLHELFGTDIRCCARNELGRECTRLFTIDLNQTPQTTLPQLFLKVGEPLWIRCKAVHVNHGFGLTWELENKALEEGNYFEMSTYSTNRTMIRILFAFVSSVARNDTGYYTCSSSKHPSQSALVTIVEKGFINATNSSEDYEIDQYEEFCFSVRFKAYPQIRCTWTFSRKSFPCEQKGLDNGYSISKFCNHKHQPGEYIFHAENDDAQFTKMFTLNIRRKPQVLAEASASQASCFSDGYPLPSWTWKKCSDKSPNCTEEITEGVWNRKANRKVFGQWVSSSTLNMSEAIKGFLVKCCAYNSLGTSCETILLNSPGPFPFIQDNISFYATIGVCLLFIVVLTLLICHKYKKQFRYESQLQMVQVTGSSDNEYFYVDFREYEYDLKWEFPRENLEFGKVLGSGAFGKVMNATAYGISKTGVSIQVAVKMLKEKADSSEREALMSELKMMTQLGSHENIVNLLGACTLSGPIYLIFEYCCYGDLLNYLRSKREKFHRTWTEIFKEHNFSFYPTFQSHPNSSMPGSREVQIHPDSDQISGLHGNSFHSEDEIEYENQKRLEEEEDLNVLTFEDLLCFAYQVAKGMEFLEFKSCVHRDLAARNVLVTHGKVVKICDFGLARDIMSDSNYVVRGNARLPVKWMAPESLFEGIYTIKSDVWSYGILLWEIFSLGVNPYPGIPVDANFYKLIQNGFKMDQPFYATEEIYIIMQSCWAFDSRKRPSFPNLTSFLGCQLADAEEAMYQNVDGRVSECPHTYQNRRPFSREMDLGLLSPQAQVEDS
Description: Nanosyn in vitro kinase profiling: FLT-3. To be noted: for inhibition at 1 µM: compound at 1 μM. The class given is biochemical. On the procedure:
as §1, §2

In a further experiment the target is AMP-A1B1G1 (Homo sapiens, UniProt Q13131). Description: Nanosyn in vitro kinase profiling: AMP-A1B1G1. The class given is biochemical. To be noted: for inhibition at 1 µM: compound at 1 μM. On the procedure:
as §1, §2

A further experiment deals with T2, CHEK1 (Homo sapiens, UniProt O14757).
T2 sequence (O14757 1-476): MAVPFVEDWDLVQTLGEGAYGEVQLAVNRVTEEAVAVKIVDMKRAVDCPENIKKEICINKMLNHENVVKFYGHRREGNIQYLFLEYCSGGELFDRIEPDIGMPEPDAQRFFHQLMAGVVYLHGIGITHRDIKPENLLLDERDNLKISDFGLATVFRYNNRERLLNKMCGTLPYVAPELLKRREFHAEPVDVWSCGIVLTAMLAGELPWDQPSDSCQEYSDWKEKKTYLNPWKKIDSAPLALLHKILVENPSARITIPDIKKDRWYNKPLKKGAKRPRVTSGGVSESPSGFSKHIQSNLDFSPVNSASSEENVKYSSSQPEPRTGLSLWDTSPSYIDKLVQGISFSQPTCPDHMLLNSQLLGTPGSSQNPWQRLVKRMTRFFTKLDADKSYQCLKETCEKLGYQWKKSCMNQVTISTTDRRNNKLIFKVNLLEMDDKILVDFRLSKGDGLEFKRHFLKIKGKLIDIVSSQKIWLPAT
Description: Nanosyn in vitro kinase profiling: CHEK1. The format is biochemical. To be noted: for inhibition at 1 µM: compound at 1 μM. On the procedure:
as §1, §2

In a further experiment the target is SRC (Homo sapiens, UniProt P12931). Description: Nanosyn in vitro kinase profiling: SRC. To be noted: for inhibition at 1 µM: compound at 1 μM. The class given is biochemical. As for the experimental part:
as §1, §2

The target in experiment [1] is T3, 2YF-YVMA/3wt + NRG Ba/F3 cells (Homo sapiens, UniProt P04626, DUP772-775/Y1005F/Y1023F/Y1112F/Y1127F/Y1139F/Y1196F/Y1221F/Y1222F/Y1248F, cells depend on it).
T3 construct: reported HER2 oncogenic mutants in the HER2YF construct
Description: Ba/F3 proliferation assay, 2YF-YVMA/3wt + NRG. The class given is cell-based. On the procedure: For the 2YF/3wt cells, the parental cells were first transduced with HER3 according to the protocol above and were then spun down at 500×g for 5 min and re-suspended in media supplemented with 10 ng/mL IL-3 and 3 μg/mL puromycin (Invitrogen). Cells were maintained in these conditions for seven days, passaging as required. After seven days the cells were spun down, washed with fresh media, and then used for a subsequent round of transduction according to the protocol above with HER2YF virus. […] The cells were maintained in these conditions for seven days, passaging as required. After seven days the cells were spun down, washed with fresh media, and then suspended in media supplemented with 10 ng/mL of NRG. Cells were maintained in these conditions for seven days to select for a NRG dependent population of 2YF/3wt Ba/F3 cells that were then maintained as described above. The same protocol was used for the 2YF-L755S/3wt, 2YF-YVMA/3wt, and 2YF-VC/3wt cell lines using the indicated constructs.
Proliferation Assays. […] The following day media was changed to fresh media that contained either DMSO or the indicated concentration of drug plus NRG (50 ng/mL final concentration) as indicated. […] For all normalized assays, proliferation was normalized to the DMSO control condition. […]

Chain of SRC (P12931 whole entry): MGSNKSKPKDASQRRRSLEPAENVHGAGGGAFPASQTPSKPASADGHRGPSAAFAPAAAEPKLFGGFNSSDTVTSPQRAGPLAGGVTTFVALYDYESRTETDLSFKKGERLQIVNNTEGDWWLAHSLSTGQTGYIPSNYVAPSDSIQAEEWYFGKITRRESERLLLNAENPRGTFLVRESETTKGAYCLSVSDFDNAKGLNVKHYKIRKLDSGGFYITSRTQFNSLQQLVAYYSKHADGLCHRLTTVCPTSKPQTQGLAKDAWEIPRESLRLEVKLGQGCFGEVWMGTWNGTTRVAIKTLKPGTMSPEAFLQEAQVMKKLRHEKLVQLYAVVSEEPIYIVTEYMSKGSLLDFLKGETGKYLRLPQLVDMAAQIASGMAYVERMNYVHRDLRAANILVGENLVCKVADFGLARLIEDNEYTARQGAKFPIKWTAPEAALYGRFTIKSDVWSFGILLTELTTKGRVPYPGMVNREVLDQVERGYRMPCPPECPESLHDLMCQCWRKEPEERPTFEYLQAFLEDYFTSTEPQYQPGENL
Chain of MAP4K4 (O95819 whole entry): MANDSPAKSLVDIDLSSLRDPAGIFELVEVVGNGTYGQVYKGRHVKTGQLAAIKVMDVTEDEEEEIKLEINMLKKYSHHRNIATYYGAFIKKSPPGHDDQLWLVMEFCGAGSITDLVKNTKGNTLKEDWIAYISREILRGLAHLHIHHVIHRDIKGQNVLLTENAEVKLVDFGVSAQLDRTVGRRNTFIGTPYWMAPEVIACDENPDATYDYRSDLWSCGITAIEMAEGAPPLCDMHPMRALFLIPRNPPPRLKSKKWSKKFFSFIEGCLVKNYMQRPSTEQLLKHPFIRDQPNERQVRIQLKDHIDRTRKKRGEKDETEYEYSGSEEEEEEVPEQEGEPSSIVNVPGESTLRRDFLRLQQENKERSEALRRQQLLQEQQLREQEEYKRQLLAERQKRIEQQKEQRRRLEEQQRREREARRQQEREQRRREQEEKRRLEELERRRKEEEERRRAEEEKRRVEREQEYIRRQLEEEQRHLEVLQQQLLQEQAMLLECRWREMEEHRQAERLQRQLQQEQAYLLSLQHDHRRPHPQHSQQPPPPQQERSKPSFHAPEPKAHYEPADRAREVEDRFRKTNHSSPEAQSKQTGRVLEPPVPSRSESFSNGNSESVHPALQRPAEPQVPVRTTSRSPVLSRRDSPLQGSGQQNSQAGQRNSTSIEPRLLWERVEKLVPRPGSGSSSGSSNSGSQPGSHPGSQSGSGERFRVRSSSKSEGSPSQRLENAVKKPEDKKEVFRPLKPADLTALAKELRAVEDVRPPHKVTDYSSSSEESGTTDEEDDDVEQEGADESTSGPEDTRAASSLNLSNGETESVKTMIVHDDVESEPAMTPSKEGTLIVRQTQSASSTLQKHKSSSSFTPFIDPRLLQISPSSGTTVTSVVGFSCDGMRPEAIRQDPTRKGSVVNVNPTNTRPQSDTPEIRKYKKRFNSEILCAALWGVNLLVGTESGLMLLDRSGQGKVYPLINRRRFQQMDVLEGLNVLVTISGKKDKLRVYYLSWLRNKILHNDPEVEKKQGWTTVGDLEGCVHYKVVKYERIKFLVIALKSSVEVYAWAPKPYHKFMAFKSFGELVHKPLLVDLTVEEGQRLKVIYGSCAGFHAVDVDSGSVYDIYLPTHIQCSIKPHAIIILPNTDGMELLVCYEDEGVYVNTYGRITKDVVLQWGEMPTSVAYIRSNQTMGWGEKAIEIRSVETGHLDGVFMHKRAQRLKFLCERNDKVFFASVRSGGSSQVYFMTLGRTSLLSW
Chain of AMP-A1B1G1 (Q13131 whole entry): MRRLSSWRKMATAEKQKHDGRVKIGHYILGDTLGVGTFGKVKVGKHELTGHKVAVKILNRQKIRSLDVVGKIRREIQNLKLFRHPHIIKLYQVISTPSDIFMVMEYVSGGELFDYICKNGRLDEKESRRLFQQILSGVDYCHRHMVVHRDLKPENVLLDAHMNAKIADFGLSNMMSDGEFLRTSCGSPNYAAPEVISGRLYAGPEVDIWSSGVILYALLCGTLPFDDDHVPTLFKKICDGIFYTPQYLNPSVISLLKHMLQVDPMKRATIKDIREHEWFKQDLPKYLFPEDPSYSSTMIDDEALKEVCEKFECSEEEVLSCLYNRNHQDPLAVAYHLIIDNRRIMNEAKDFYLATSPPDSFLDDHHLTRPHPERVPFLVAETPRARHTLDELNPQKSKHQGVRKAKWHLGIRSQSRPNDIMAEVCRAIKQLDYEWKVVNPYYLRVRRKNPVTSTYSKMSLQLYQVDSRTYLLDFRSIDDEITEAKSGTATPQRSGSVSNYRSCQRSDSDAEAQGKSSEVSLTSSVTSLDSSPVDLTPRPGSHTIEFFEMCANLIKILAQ
Chain of AMP-A1B1G1 (Q9Y478 whole entry partner): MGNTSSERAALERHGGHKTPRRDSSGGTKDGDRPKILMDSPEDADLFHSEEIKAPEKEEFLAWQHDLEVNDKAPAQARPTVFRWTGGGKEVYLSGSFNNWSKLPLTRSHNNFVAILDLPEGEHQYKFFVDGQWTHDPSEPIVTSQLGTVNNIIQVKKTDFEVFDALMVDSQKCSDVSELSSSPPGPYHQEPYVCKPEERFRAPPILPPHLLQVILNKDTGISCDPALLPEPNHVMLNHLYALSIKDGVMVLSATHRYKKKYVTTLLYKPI
Chain of AMP-A1B1G1 (P54619 whole entry partner): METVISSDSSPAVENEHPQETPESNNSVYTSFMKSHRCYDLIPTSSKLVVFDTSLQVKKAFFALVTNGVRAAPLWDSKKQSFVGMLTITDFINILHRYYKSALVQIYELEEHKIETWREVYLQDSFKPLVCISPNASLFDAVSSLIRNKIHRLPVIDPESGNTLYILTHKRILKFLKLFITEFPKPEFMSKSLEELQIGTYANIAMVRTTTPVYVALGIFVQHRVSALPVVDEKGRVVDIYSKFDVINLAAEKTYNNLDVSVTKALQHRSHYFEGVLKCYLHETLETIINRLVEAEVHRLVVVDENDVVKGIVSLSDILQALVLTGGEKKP
Chain of ROCK1 (Q13464 whole entry, species assumed): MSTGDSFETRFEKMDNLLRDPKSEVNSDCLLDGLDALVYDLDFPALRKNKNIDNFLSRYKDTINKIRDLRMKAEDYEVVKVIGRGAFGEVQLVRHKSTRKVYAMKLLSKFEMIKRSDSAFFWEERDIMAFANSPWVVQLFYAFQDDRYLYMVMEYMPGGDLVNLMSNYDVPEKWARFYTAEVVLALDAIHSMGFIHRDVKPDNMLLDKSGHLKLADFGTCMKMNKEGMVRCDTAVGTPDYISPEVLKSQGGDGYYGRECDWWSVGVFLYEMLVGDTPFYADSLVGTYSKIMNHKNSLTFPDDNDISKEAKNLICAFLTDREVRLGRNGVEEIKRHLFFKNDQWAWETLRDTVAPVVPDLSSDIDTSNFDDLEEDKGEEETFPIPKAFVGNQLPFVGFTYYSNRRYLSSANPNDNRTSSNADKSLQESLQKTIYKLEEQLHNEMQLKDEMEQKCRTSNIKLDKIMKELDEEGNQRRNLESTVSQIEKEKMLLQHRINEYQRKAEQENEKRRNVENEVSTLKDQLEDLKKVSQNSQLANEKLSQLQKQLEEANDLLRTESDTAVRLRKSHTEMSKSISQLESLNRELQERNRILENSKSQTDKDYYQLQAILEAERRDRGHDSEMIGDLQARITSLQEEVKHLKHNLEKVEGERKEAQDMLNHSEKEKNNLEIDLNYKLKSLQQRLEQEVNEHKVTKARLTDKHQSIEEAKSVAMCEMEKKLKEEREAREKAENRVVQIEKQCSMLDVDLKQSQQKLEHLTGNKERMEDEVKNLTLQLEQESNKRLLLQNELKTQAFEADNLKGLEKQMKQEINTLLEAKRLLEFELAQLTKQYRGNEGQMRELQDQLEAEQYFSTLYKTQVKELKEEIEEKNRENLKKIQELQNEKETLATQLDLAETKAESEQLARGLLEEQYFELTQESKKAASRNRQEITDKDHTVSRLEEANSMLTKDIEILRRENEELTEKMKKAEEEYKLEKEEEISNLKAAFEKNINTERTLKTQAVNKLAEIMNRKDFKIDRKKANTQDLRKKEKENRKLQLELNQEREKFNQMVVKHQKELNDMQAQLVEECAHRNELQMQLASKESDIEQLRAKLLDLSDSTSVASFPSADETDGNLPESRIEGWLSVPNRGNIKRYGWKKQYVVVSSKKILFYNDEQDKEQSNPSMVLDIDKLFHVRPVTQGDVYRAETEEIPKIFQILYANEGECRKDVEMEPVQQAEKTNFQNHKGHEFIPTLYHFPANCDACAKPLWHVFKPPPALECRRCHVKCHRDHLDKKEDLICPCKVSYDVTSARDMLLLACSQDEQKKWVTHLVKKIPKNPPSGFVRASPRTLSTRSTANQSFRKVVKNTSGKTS

In general, inhibition refers to the relative decrease from the control value, in per cent. Turning to `COc1ccc(-c2ccco2)cc1Nc1ncnc2[nH]nc(-c3ccco3)c12` [compound 2, 3-(furan-2-yl)-N-(5-(furan-2-yl)-2-methoxyphenyl)-1H-pyrazolo[3,4-d]pyrimidin-4-amine], the inhibition at 0.1 µM at ROCK1 (compound at 100 nM) amounted to 0.155%; at MAP4K4 (compound at 100 nM), 36.5%; against FLT-3 (compound at 100 nM), 60%; on AMP-A1B1G1 (compound at 100 nM), 2.69%; on CHEK1 (compound at 100 nM) it was 0.965%; at SRC (compound at 100 nM), 63.2%. Besides, the inhibition at 1 µM against ROCK1 was found to be 1.16%; on MAP4K4, 78.7%; at FLT-3, 89.4%; against AMP-A1B1G1, 12.9%; against CHEK1, 2.27%; against SRC, 88.9%.
Consider `COc1ccc(-c2ccoc2)cc1Nc1ncnc2[nH]cc(-c3cc[nH]n3)c12` [compound 3, N-(5-(furan-3-yl)-2-methoxyphenyl)-5-(1H-pyrazol-3-yl)-7H-pyrrolo[2,3-d]pyrimidin-4-amine], for which the inhibition at 1 µM against ROCK1 stood at 16%; at MAP4K4 it was 100%; against FLT-3, 78%; at AMP-A1B1G1, 20%; at CHEK1 it was 10%; against SRC, 95%. In addition, the GI50 in experiment [1] (Table 4; ± S.D., n = 2; read-out: IC50, 2YF-YVMA/3wt + NRG) is 0.0114 ± 0.0001 µM.
Consider `CS(=O)(=O)CCNCc1ccc(-c2ccc3ncnc(Nc4ccc(OCc5cccc(F)c5)c(Cl)c4)c3c2)o1` [lapatinib], for which the GI50 in experiment [1] (read-out: IC50, 2YF-YVMA/3wt + NRG; Table 4; ± S.D., n = 2) was above 10 µM.
